# ChEMBL document CHEMBL6182913, “Design of Potent Small-Molecule Stimulator of Interferon Gene Inhibitor and Stimulator of Interferon Gene Mutant-Specific Degrader” (J Med Chem, 2025)
# pIC50: −log10 of the molar value.
# Columns and labels:
# [1] = Cytotoxicity against human THP1-Blue ISG cells assessed as inhibition of cell growth at 10 uM incubated for 24 hrs by MTS assay relative to control; assay type: toxicity, cell-based
# [2] = biological target: Stimulator of interferon genes protein (Homo sapiens, UniProt Q86WV6, G230A/R293Q/R71H); experiment: Inhibition of cGAMP-induced STING HAQ mutant transfected in human THP1-Blue ISG cells preincubated with compound for 6 hrs followed by cGAMP addition and measured after 18 hrs by QUANTI-Blue based microplate reader analysis; assay type: cell-based
# Stimulator of interferon genes protein, sequence (Q86WV6 whole entry R71H/G230A/R293Q): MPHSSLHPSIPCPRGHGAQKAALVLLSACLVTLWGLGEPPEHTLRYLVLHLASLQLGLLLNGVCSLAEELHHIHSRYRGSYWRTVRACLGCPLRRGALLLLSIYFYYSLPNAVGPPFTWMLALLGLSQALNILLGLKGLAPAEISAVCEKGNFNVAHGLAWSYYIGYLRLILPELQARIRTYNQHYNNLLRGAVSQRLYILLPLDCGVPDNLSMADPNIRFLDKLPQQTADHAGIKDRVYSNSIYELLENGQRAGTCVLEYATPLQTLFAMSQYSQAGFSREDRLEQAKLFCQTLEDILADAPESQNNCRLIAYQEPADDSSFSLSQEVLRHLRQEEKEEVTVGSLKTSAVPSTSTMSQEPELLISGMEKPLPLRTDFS
# [3] = Metabolic stability in mouse plasma assessed as half life in presence of NADPH by LC-MS/MS analysis; assay type: ADME, cell-free
Compound,"inhibition at 24 h, 10 µM [1] [%]",pIC50 [2],half-life [3] [h]
CC(C)(C)c1ccc(N2C(=O)c3ccccc3C(C(N)=O)C2c2cc3cc(-c4ccc(C(=O)NC5CCN(S(C)(=O)=O)CC5)cc4)ccc3o2)cc1Cl (configuration not stated),35.2,< 5.00,–
CS(=O)(=O)Nc1cc(NC(=O)c2ccc(-c3ccc4oc(C5C(C(N)=O)c6ccccc6C(=O)N5c5ccc6c(c5)CCCC6)cc4c3)cc2)ccc1O (configuration not stated),38.7,6.27,–
CC(C)(C)c1ccc(N2C(=O)c3ccccc3C(C(N)=O)C2c2ccc(Oc3ccc(C(=O)Nc4ccc(O)c(NS(C)(=O)=O)c4)cc3)cc2)cc1Cl (configuration not stated),33.8,< 5.00,–
CC(C)(C)c1ccc(N2C(=O)c3ccccc3C(C(N)=O)C2c2cc3cc(-c4ncc(C(=O)Nc5ccc(O)c(NS(C)(=O)=O)c5)cn4)ccc3o2)cc1Cl (configuration not stated),20.4,< 5.00,–
CC(=O)Nc1cc(NC(=O)c2ccc(Oc3ccc(C4C(C(N)=O)c5ccccc5C(=O)N4c4ccc(C(C)(C)C)c(Cl)c4)cc3)cc2)ccc1O (configuration not stated),67.2,5.60,–
CC(C)(C)c1ccc(N2C(=O)c3ccccc3C(C(N)=O)C2c2ccc(Oc3ccc(C(=O)Nc4ccc(O)cc4)cc3)cc2)cc1Cl (configuration not stated),29.4,< 5.00,–
CC(C)(C)c1ccc(N2C(=O)c3ccccc3C(C(N)=O)C2c2ccc(Nc3ccc(C(=O)Nc4ccc(O)c(NS(C)(=O)=O)c4)cc3)cc2)cc1Cl (configuration not stated),0,5.49,–
CC(C)(C)c1ccc(N2C(=O)c3ccccc3C(C(N)=O)C2c2ccc(Oc3ccc(C(=O)Nc4ccc(NS(C)(=O)=O)cc4)cc3)cc2)cc1Cl (configuration not stated),13.7,< 5.00,–
CC(C)(C)c1ccc(N2C(=O)c3cc(F)ccc3C(C(N)=O)C2c2cc3cc(-c4ccc(C(=O)Nc5ccc(O)c(NS(C)(=O)=O)c5)cc4)ccc3s2)cc1Cl (configuration not stated),23.2,6.35,–
CCC(=O)Nc1cc(NC(=O)c2ccc(Oc3ccc(C4C(C(N)=O)c5ccccc5C(=O)N4c4ccc(C(C)(C)C)c(Cl)c4)cc3)cc2)ccc1O (configuration not stated),7.5,< 5.00,–
CS(=O)(=O)Nc1cc(NC(=O)c2ccc(-c3ccc4oc(C5C(C(N)=O)c6ccccc6C(=O)N5c5ccc(Br)c(Cl)c5)cc4c3)cc2)ccc1O (configuration not stated),65.1,6.57,–
CS(=O)(=O)Nc1cc(NC(=O)c2ccc(-c3ccc4oc(C5C(C(N)=O)c6ccccc6C(=O)N5c5ccc(C6CC6)c(Cl)c5)cc4c3)cc2)ccc1O (configuration not stated),61.5,6.96,–
CC(C)(C)c1ccc(N2C(=O)c3cc(F)ccc3C(C(N)=O)C2C2=Cc3cc(-c4ccc(C(=O)Nc5ccc(O)c(NS(C)(=O)=O)c5)cc4)ccc3S2(=O)=O)cc1Cl (configuration not stated),12.7,6.14,–
CC(C)(C)c1ccc(N2C(=O)c3ccccc3C(C(N)=O)C2c2ccc(Oc3ccc(C(=O)Nc4ccc(CO)c(NS(C)(=O)=O)c4)cc3)cc2)cc1Cl (configuration not stated),0,< 5.00,–
CCS(=O)(=O)Nc1cc(NC(=O)c2ccc(-c3ccc4oc(C5C(C(N)=O)c6ccccc6C(=O)N5c5ccc(C(C)(C)C)c(Cl)c5)cc4c3)cc2)ccc1O (configuration not stated),11.1,6.70,> 4
CC(=O)Nc1cc(NC(=O)c2ccc(Oc3ccc(C4C(C(N)=O)c5ccccc5C(=O)N4c4ccc(C(C)(C)C)c(Cl)c4)cc3)cc2)ccc1C (configuration not stated),11.6,< 5.00,–
CC(C)(C)c1ccc(N2C(=O)c3ccccc3C(C(N)=O)C2c2ccc(Oc3ccc(C(=O)Nc4cccc(NS(C)(=O)=O)c4)cc3)cc2)cc1Cl (configuration not stated),10.5,< 5.00,–
CC(C)(C)c1ccc(N2C(=O)c3ccccc3C(C(N)=O)C2c2cc3cc(-c4ccc(C(=O)Nc5ccc(O)c(NS(C)(=O)=O)c5)cn4)ccc3o2)cc1Cl (configuration not stated),45.7,6.85,–
CC(C)(C)c1ccc(N2C(=O)c3ccccc3C(C(N)=O)C2c2cc3cc(-c4ccc(C(=O)N[C@H]5CC[C@H](O)CC5)cc4)ccc3o2)cc1Cl (some centres not stated),67,< 5.00,–
CN1C(=O)c2ccccc2C(C(N)=O)C1c1cc2cc(-c3ccc(C(=O)Nc4ccc(O)c(NS(C)(=O)=O)c4)cc3)ccc2o1 (configuration not stated),57.9,5.19,–
CC(C)(C)c1ccc(N2C(=O)c3ccccc3C(C(N)=O)C2c2cc3cc(-c4ccc(C(=O)Nc5ccc(F)c(NS(C)(=O)=O)c5)cc4)ccc3o2)cc1Cl (configuration not stated),26.8,< 5.00,–
CC(C)(C)c1ccc(N2C(=O)c3ccccc3C(C(N)=O)C2c2cc3cc(-c4ccc(C(=O)N[C@H]5CC[C@@H](O)CC5)cc4)ccc3o2)cc1Cl (some centres not stated),59.6,< 5.00,–

Compound,"inhibition at 24 h, 10 µM [1] [%]",pIC50 [2],half-life [3] [h]
CN(c1ccc(C(=O)Nc2ccc(O)c(NS(C)(=O)=O)c2)cc1)c1ccc(C2C(C(N)=O)c3ccccc3C(=O)N2c2ccc(C(C)(C)C)c(Cl)c2)cc1 (configuration not stated),1.2,6.09,–
CC(C)(C)c1ccc(N2C(=O)c3ccccc3C(C(N)=O)C2c2cc3cc(-c4ccc(C(=O)Nc5ccc(O)c(NS(C)(=O)=O)c5)cc4)ccc3s2)cc1Cl (configuration not stated),15.9,6.36,–
CC(C)(C)c1ccc(N2C(=O)c3ccccc3C(C(N)=O)C2c2cc3cc(-c4ccc(C(=O)Nc5ccc(O)c(NS(=O)(=O)C(F)(F)F)c5)cc4)ccc3o2)cc1Cl (configuration not stated),20.2,< 5.00,–
CC(C)(C)c1ccc(N2C(=O)c3ccccc3C(C(N)=O)C2c2cc3cc(-c4ccc(C(=O)Nc5ccc(O)c(NS(C)(=O)=O)c5)cc4)ccc3o2)cc1F (configuration not stated),55.6,7.00,–
CC(C)(C)c1ccc(N2C(=O)c3ccccc3C(C(N)=O)C2c2ccc(Oc3ccc(C(=O)Nc4cc(F)c(O)c(F)c4)cc3)cc2)cc1Cl (configuration not stated),44.5,5.49,–
CS(=O)(=O)Nc1cc(NC(=O)c2ccc(-c3ccc4oc(C5C(C(N)=O)c6ccccc6C(=O)N5c5ccccc5)cc4c3)cc2)ccc1O (configuration not stated),23,5.44,–
CC(C)(C)c1ccc(N2C(=O)c3cc(F)ccc3C(C(N)=O)C2c2ccc3sc(-c4ccc(C(=O)Nc5ccc(O)c(NS(C)(=O)=O)c5)cc4)cc3c2)cc1Cl (configuration not stated),7.7,6.02,–
CC(C)(C)c1ccc(N2C(=O)c3ccccc3C(C(N)=O)C2c2ccc3c(c2)C=C(c2ccc(C(=O)Nc4ccc(O)c(NS(C)(=O)=O)c4)cc2)S3(=O)=O)cc1Cl (configuration not stated),36.1,< 5.00,–
CC(C)(C)c1ccc(N2C(=O)c3ccccc3C(C(N)=O)C2c2ccc3oc(-c4ccc(C(=O)Nc5ccc(O)c(NS(C)(=O)=O)c5)cc4)cc3c2)cc1Cl (configuration not stated),14,5.55,–
CC(C)(C)c1ccc(N2C(=O)c3cc(F)ccc3C(C(N)=O)C2c2ccc3sc(-c4ccc(C(=O)Nc5ccc(O)c(NS(C)(=O)=O)c5)cc4F)cc3c2)cc1Cl (configuration not stated),11.1,6.10,–
CC(C)(C)c1ccc(N2C(=O)c3ccccc3C(C(N)=O)C2c2cc3cc(-c4ccc(NC(=O)c5cc(O)cc(NS(C)(=O)=O)c5)cc4)ccc3s2)cc1Cl (configuration not stated),50.2,< 5.00,–
CC(C)(C)c1ccc(N2C(=O)c3ccccc3C(C(=O)O)C2c2cc3cc(-c4ccc(C(=O)Nc5ccc(O)c(NS(C)(=O)=O)c5)cc4)ccc3s2)cc1Cl (configuration not stated),0,< 5.00,–
CC(C)(C)c1ccc(N2C(=O)c3ccccc3C(C(N)=O)C2c2cc3cc(-c4ccc(C(=O)Nc5ccc(N)c(NS(C)(=O)=O)c5)cc4)ccc3o2)cc1Cl (configuration not stated),28.5,< 5.00,–
CC(C)(C)c1ccc(N2C(=O)c3ccccc3C(C(N)=O)C2c2cc3cc(-c4ccc(C(=O)Nc5cc(O)cc(NS(C)(=O)=O)c5)cc4)ccc3o2)cc1Cl (configuration not stated),46.2,< 5.00,–
CS(=O)(=O)Nc1cc(NC(=O)c2ccc(-c3ccc4oc(C5C(C(N)=O)c6ccccc6C(=O)N5c5ccc(C6CC6)cc5)cc4c3)cc2)ccc1O (configuration not stated),25.6,6.57,–
CC(C)(C)c1ccc(N2C(=O)c3cc(F)ccc3C(C(N)=O)C2c2cc3cc(-c4ccc(C(=O)Nc5ccc(O)c(NC(=O)C(F)(F)F)c5)cc4)ccc3s2)cc1Cl (configuration not stated),12.5,5.64,–
CC(C)(C)c1ccc(N2C(=O)c3cc(F)ccc3C(C(N)=O)C2c2ccc3sc(-c4ccc(C(=O)Nc5ccc(O)c(NS(=O)(=O)C6CC6)c5)cc4)cc3c2)cc1Cl (configuration not stated),7.7,< 5.00,–
CC(C)(C)c1ccc(N2C(=O)c3ccccc3C(C(N)=O)C2c2ccc3sc(-c4ccc(C(=O)Nc5ccc(O)c(NS(C)(=O)=O)c5)cc4)cc3c2)cc1Cl (configuration not stated),3.9,6.74,–
CC(C)(C)c1ccc(N2C(=O)c3ccccc3C(C(N)=O)C2c2cc3cc(-c4ccc(C(=O)Nc5cc(-c6ccco6)n[nH]5)cc4)ccc3o2)cc1Cl (configuration not stated),17.8,< 5.00,–
CC(C)(C)c1ccc(N2C(=O)c3cc(F)ccc3C(C(N)=O)C2c2ccc3sc(-c4ccc(C(=O)Nc5ccc(O)c(C(N)=O)c5)cc4)cc3c2)cc1Cl (configuration not stated),14.7,< 5.00,–
CC(C)(C)c1ccc(N2C(=O)c3ccccc3C(C(N)=O)C2c2cc3cc(-c4ccc(C(=O)Nc5ccc(O)c(NC(=O)C(F)(F)F)c5)cc4)ccc3o2)cc1Cl (configuration not stated),4.9,5.24,–
